Assay results published in US20040001859A1, “Anti-aging dietary supplements” (priority 2002, published 2004).

Tested on: MDA (lipid peroxidation) in blood
Experiment: MDA rat model assay (blood MDA, aged rats)
Format: in vivo, wistar rats
Procedure: A total of forty 3.5 year old wistar rats were divided into four groups, each containing 10 rats. Groups A, B, C and VE were treated with the activated yeast composition, the control yeast composition, saline and Vitamin E, respectively. Eight 8 month old wistar rats were also selected for group D, which were used as a junior control group.
Groups A, B and VE were administered daily 3 ml/kg (body weight) of the activated yeast composition, 3 ml/kg of the control yeast composition and 0.25 mg/kg of Vitamin E, respectively. Groups C and D were both treated with 3 ml/kg of saline daily. After three months of treatment, blood samples were taken from the heart of the rats and placed in a test tube with heparin. The test tube was then incubated at 37° C. for 10 minutes and centrifuged at 2500 rpm for 10 minutes. 4 ml of sulfuric acid and 0.5 ml of phosphotungstic acid were added to the serum and left at room temperature for 5 minutes after mixing. The mixture was then centrifuged at 3000 rpm for 10 minutes. 2 ml of sulfuric acid and 0.3 ml of phosphotungstic acid were added to the precipitate. Finally, the mixture was used to determine the MDA concentration as described previously.

Cc1c(C)c2c(c(C)c1O)CC[C@@](C)(CCC[C@H](C)CCC[C@H](C)CCCC(C)C)O2 [VE, Vitamin E]
MDA (3.5 year old rats, blood from heart after three months of daily treatment, yeast compositions 3 ml/kg, Vitamin E 0.25 mg/kg): 4.36 ± 0.78 µM
lipid peroxidation compared to control yeast composition or saline (aged rats, three months, in words): reduced lipid peroxidation
